Assay [1] deals with T1, c9 (mouse ATGL with humanized T101, C106, R109, N111, S133) (Mus musculus, UniProt Q8BJ56, C106S/N111S/R109H/S133N/T101V).
T1 construct: host or cells: Expi293 cells, cell lysate
The experiment in a line: TAG hydrolase assay, chimeric ATGL variants. The assay is classed as biochemical, human and mouse. The note with it: variant c9, NG-497 (10 μM) or Atglistatin (10 μM). As for the experimental part:
(§1) Figure 5 Analysis of chimeric proteins comprising human and mouse ATGL. (a) Schematic view of the minimal active domain of wild-type and chimeric ATGL variants (c1–c9). Nonidentical aa are indicated in blue and red for mouse and human ATGL, respectively. ATGL variants were expressed in Expi293 cells and TAG hydrolase activity was determined in cell lysates in the presence or absence of NG-497 (10 μM) and Atglistatin (10 μM), respectively. Inhibition of ATGL variants by respective inhibitors (tick mark) and lack of inhibition (cross) is indicated at the right edge. The expression of all ATGL variants was confirmed by Western blotting analysis (Figure S6). (b) Dose-dependent inhibition of human ATGL (aa 1–288) and c1 (human aa 1–158 and mouse aa 159–288) by NG-497. (c) Dose-dependent inhibition of mouse ATGL (aa 1–288) and c2 (mouse aa 1–158 and human aa 159–288) by Ai. IC50 values are shown in the insets. Data are presented as relative inhibition of respective DMSO controls and are indicated as mean ± SD. (d) 3D homology model of the minimal active domain of mouse ATGL (M1–L254) depicted as a cartoon. Residues 1–178 are in blue, and residues 179–254 are in gray. […]
Expression of recombinant ATGL constructs and preparation of cell lysates. […] Protein concentrations were determined using Bio-Rad protein assay (Bio-Rad 785, Bio-Rad Laboratories, Munich, Germany) using BSA as standard. […]

Assay [2] concerns the target T2, c6 (aa 1–133 of human ATGL) (Homo sapiens, UniProt Q96AD5, G146T/S158T).
T2 construct: host or cells: Expi293 cells, cell lysate
The experiment in a line: TAG hydrolase assay, chimeric ATGL variants. The assay is classed as biochemical, human and mouse. The following applies: variant c6, NG-497 (10 μM) or Atglistatin (10 μM). As for the experimental part: as §1, with “gray. S47 and D166 comprising the active site are represented as green sticks. T101, C106, R109, N111, and S133 are colored in orange, A60, N68, I69, T93, C97, and T146 are colored in magenta. TEXT PRINTED IN THE PICTURE: (b) NG-497: IC50 [μM] (human): 1.3±0.1; IC50 [μM] (c1): 1.3±0.1 | (b) Ai: IC50 [μM] (human): n.det.; IC50 [μM] (c1): n.det. | (c) NG-497: IC50 [μM] (mouse): n.det.; IC50 [μM] (c2): n.det. | (c) Ai: IC50 [μM] (mouse): 2.5±0.3; IC50 [μM] (c2): 2.4±0.1” for “gray.”
We next generated variants by further stepwise humanization of c2. Variant c3 containing aa 1–23 of human ATGL was inhibited by Ai but not NG-497 (Figure 5a). […] Finally, variants of mouse ATGL containing aa 1–146 (c7) and 60–146 (c8) of human ATGL were inhibited by NG-497 but not Ai (Figure 5a).
(§2) Experimental details, materials, and methods
(§3) Expression of recombinant ATGL constructs and preparation of cell lysates. Expi293 cells were cultivated in Expi293 Expression Medium (GIBCO, Thermo Fisher Scientific, Waltham, USA) at standard conditions (37°C, 5% CO2, 95% humidified atmosphere, 125 rpm). DNA constructs containing ATGL from different species and chimeric ATGL variants in pcDNA3.1(+)myc-His C Vector were obtained from BioCat GmbH (Heidelberg, Germany). Cells were transfected with ExpiFectamine293 Transfection Kit (GIBCO) in Opti-Mem reduced serum medium (GIBCO) according to the manufacturer’s instructions. After 48 h, cells were harvested by centrifugation and washed three times with PBS. Cells were disrupted in buffer A (0.25 M sucrose, 1 mM EDTA, 1 mM dithiothreitol, 20µg/ml leupeptin, 2 µg/ml antipain, 1 µg/ml pepstatin, pH 7.0) by sonication (Virsonic 475, Virtis, Gardiner, USA). Nuclei and debris were removed by centrifugation at 1,000 g and 4°C for 10 min. Protein concentrations were determined using Bio-Rad protein assay (Bio-Rad 785, Bio-Rad Laboratories, Munich, Germany) using BSA as standard.
(§4) Expression and purification of mouse CGI-58. CGI-58 was expressed and purified as described 1. In brief, the coding sequence of mouse Cgi-58 was cloned into pHis-Sumo and co-transformed with the plasmid pTf16 expressing the chaperone Tig into E. coli BL21(DE3). Cells were cultured overnight at 37°C and 180 rpm in the presence of 40 µg/ml kanamycin and 34 µg/ml chloramphenicol. Thereafter, cells were transferred into fresh LB medium, grown until OD600 of 0.6, and expression was induced by the addition of 0.5 mM IPTG. After overnight incubation at 30°C, cells were harvested at 4,500 x g and 4°C for 20 min, washed in 1x PBS, and resuspended in lysis buffer (20 mM Tris/HCl pH 7.8, 300 mM NaCl, 30 mM imidazole, 0.1% IGEPAL CA-630, 3.5 mM β-mercaptoethanol, 20 µg/ml leupeptin, 2 µg/ml antipain and 1 µg/ml pepstatin). Cells were incubated with 1 […]

The target of assay [3] is T3, mouse ATGL I69F (Mus musculus, UniProt Q8BJ56, I69F).
T3 construct: host or cells: Expi293 cells, cell lysate
The experiment in a line: TAG hydrolase assay, humanized mouse ATGL variants. The following applies: variant I69F, NG-497 (10 μM) or Atglistatin (10 μM). The assay is classed as biochemical. As for the experimental part: as §1, with “gray. S47 and D166 comprising the active site are represented as green sticks. T101, C106, R109, N111, and S133 are colored in orange, A60, N68, I69, T93, C97, and T146 are colored in magenta. TEXT PRINTED IN THE PICTURE: (b) NG-497: IC50 [μM] (human): 1.3±0.1; IC50 [μM] (c1): 1.3±0.1 | (b) Ai: IC50 [μM] (human): n.det.; IC50 [μM] (c1): n.det. | (c) NG-497: IC50 [μM] (mouse): n.det.; IC50 [μM] (c2): n.det. | (c) Ai: IC50 [μM] (mouse): 2.5±0.3; IC50 [μM] (c2): 2.4±0.1” for “gray.”
(§5) The region between aa 60 and 146 of human and mouse ATGL comprises 12 nonidentical aa. We generated 3D homology models for the minimal active domain of mouse ATGL to obtain more detailed insight into the topology of the relevant region (Figure 5d). Based on this model, aa T101, C106, R109, N111, and S133 locate at peripheral (loop) regions (indicated in orange, Figure 5d). […] For all other nonidentical aa (indicated in magenta, Figure 5d), we generated variants with single aa substitutions. The humanized variants A60V, N68K, T93I, and C97F were inactivated by Ai but not NG-497 (Figure 5a).
as §2, §3
as §4, with “min,” for “min, washed in 1x PBS, and resuspended in lysis buffer (20 mM Tris/HCl pH 7.8, 300 mM NaCl, 30 mM imidazole, 0.1% IGEPAL CA-630, 3.5 mM β-mercaptoethanol, 20 µg/ml leupeptin, 2 µg/ml antipain and 1 µg/ml pepstatin). Cells were incubated with 1”

Assay [4] addresses T4, mouse ATGL T146G (Mus musculus, UniProt Q8BJ56, T146G).
T4 construct: host or cells: Expi293 cells, cell lysate
The experiment in a line: TAG hydrolase assay, humanized mouse ATGL variants. The format is biochemical. The following applies: variant T146G, NG-497 (10 μM) or Atglistatin (10 μM). As for the experimental part:
as §1, with “gray. S47 and D166 comprising the active site are represented as green sticks. T101, C106, R109, N111, and S133 are colored in orange, A60, N68, I69, T93, C97, and T146 are colored in magenta. TEXT PRINTED IN THE PICTURE: (b) NG-497: IC50 [μM] (human): 1.3±0.1; IC50 [μM] (c1): 1.3±0.1 | (b) Ai: IC50 [μM] (human): n.det.; IC50 [μM] (c1): n.det. | (c) NG-497: IC50 [μM] (mouse): n.det.; IC50 [μM] (c2): n.det. | (c) Ai: IC50 [μM] (mouse): 2.5±0.3; IC50 [μM] (c2): 2.4±0.1” for “gray.”
as §5, §2, §3
as §4, with “min,” for “min, washed in 1x PBS, and resuspended in lysis buffer (20 mM Tris/HCl pH 7.8, 300 mM NaCl, 30 mM imidazole, 0.1% IGEPAL CA-630, 3.5 mM β-mercaptoethanol, 20 µg/ml leupeptin, 2 µg/ml antipain and 1 µg/ml pepstatin). Cells were incubated with 1”

T1 sequence (Q8BJ56 1-288 T101V/C106S/R109H/N111S/S133N limits assumed): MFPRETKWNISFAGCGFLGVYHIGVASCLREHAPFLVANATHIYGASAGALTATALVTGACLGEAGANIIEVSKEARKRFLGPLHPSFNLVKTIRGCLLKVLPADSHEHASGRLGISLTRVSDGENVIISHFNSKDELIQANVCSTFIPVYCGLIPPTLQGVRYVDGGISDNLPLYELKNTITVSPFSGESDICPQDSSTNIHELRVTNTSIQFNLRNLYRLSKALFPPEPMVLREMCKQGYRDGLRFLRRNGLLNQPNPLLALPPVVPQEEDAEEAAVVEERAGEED
T2 sequence (Q96AD5 1-288 G146T/S158T): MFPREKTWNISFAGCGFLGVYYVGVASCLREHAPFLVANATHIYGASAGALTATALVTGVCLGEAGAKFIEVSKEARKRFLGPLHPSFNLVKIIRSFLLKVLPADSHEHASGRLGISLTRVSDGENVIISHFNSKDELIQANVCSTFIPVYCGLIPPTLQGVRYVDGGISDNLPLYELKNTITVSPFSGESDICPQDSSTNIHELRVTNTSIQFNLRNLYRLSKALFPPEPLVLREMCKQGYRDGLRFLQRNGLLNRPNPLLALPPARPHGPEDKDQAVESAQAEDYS
T3 sequence (Q8BJ56 whole entry I69F): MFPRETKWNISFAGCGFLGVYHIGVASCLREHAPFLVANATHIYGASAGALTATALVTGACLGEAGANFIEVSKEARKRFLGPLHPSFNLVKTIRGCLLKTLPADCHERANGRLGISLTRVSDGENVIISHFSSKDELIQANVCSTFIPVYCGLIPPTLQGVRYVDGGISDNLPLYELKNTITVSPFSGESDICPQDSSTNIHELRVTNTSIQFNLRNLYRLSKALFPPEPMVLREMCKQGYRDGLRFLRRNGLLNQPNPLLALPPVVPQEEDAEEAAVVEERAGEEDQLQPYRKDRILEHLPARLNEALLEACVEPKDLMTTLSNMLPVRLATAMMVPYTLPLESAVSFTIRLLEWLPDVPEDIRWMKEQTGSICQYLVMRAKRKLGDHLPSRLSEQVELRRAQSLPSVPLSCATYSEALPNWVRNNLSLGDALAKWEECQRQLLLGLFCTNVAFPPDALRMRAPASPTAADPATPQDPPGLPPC
T4 sequence (Q8BJ56 whole entry T146G): as the sequence (Q8BJ56 whole entry I69F) above, with F69I, T146G counted along it

As to `CCOc1ccc(-c2cc(OC)cc(C(=O)OC(C)C)n2)cc1` [NG-497], the “inhibition of TAG hydrolase activity” value in assay [1] is reported as “ineffective”; in assay [2], “neither inhibited”; in assay [3] it was “neither inhibited”; in assay [4], “neither inhibited”.
With `CN(C)C(=O)Nc1cccc(-c2ccc(N(C)C)cc2)c1` [Atglistatin, reference compound], the “inhibition of TAG hydrolase activity” value in assay [1] is listed as “preserved Ai binding”; in assay [2], “neither inhibited”; in assay [3] it was “neither inhibited”; in assay [4], “neither inhibited”.
